In ChEMBL document CHEMBL1201862, “PubChem BioAssay data set” (2004):
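Dose response: 5 concentrations. Exposure: 48 h. Format: 96-well plates. Endpoint: linear interpolation; highest concentration if not reached. GI50 = concentration required for 50% inhibition of growth.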 Active and inactive are the calls of the source. No stated cut-off is given here; in the data, active = GI50 up to about 1.1 µM and inactive = higher.

How the values were obtained:
Assay in all cases: growth of human tumour cells (NCI), 48 h
786-0 = tested on: 786-0
A498 = tested on: A498
A549 = tested on: A549
ACHN = tested on: ACHN
BT-549 = tested on: BT-549
CAKI-1 = tested on: CAKI-1
COLO 205 = tested on: COLO 205
DU-145 = tested on: DU-145
EKVX = tested on: EKVX
HCT-116 = tested on: HCT-116
HCT-15 = tested on: HCT-15
HOP-62 = tested on: HOP-62
HOP-92 = tested on: HOP-92
HT-29 = tested on: HT-29
Hs-578T = tested on: Hs-578T
IGROV-1 = tested on: IGROV-1
K562 = tested on: K562
KM12 = tested on: KM12
LOX IMVI = tested on: LOX IMVI
M14 = tested on: M14
MCF7 = tested on: MCF7
MDA-MB-231 = tested on: MDA-MB-231
MDA-MB-435 = tested on: MDA-MB-435
MDA-N = tested on: MDA-N
MOLT-4 = tested on: MOLT-4
Malme-3M = tested on: Malme-3M
NCI-H226 = tested on: NCI-H226
NCI-H23 = tested on: NCI-H23
NCI-H460 = tested on: NCI-H460
NCI-H522 = tested on: NCI-H522
NCI/ADR-RES = tested on: NCI/ADR-RES
OVCAR-3 = tested on: OVCAR-3
OVCAR-4 = tested on: OVCAR-4
OVCAR-5 = tested on: OVCAR-5
OVCAR-8 = tested on: OVCAR-8
PC-3 = tested on: PC-3
RPMI-8226 = tested on: RPMI-8226
RXF 393 = tested on: RXF 393
SF-268 = tested on: SF-268
SF-295 = tested on: SF-295
SF-539 = tested on: SF-539
SK-MEL-28 = tested on: SK-MEL-28
SK-MEL-2 = tested on: SK-MEL-2
SK-MEL-5 = tested on: SK-MEL-5
SK-OV-3 = tested on: SK-OV-3
SN12C = tested on: SN12C
SNB-19 = tested on: SNB-19
SNB-75 = tested on: SNB-75
SR = tested on: SR
SW-620 = tested on: SW-620
T47D = tested on: T47D
TK-10 = tested on: TK-10
U-251 = tested on: U-251
UACC-257 = tested on: UACC-257
UACC-62 = tested on: UACC-62
CCRF-CEM = tested on: CCRF-CEM
HCC 2998 = tested on: HCC 2998
UO-31 = tested on: UO-31
HL-60 = tested on: HL-60

## O=C(O)Cc1c(O)ccc2ccccc12
786-0
  GI50: > 100 µM (inactive)
A498
  GI50: > 100 µM (inactive)
A549
  GI50: > 100 µM (inactive)
ACHN
  GI50: > 100 µM (inactive)
BT-549
  GI50: > 100 µM (inactive)
CAKI-1
  GI50: > 100 µM (inactive)
COLO 205
  GI50: > 100 µM (inactive)
DU-145
  GI50: > 100 µM (inactive)
EKVX
  GI50: > 100 µM (inactive)
HCT-116
  GI50: > 100 µM (inactive)
HCT-15
  GI50: > 100 µM
HOP-62
  GI50: > 100 µM (inactive)
HOP-92
  GI50: > 100 µM (inactive)
HT-29
  GI50: > 100 µM (inactive)
Hs-578T
  GI50: > 100 µM (inactive)
IGROV-1
  GI50: > 100 µM (inactive)
K562
  GI50: > 100 µM (inactive)
KM12
  GI50: > 100 µM (inactive)
LOX IMVI
  GI50: > 100 µM (inactive)
M14
  GI50: > 100 µM (inactive)
MCF7
  GI50: > 100 µM (inactive)
MDA-MB-231
  GI50: > 100 µM (inactive)
MDA-MB-435
  GI50: > 100 µM (inactive)
MDA-N
  GI50: > 100 µM (inactive)
MOLT-4
  GI50: > 100 µM (inactive)
Malme-3M
  GI50: > 100 µM (inactive)
NCI-H226
  GI50: > 100 µM (inactive)
NCI-H23
  GI50: > 100 µM (inactive)
NCI-H460
  GI50: > 100 µM (inactive)
NCI-H522
  GI50: > 100 µM (inactive)
NCI/ADR-RES
  GI50: > 100 µM (inactive)
OVCAR-3
  GI50: > 100 µM (inactive)
OVCAR-4
  GI50: > 100 µM (inactive)
OVCAR-5
  GI50: > 100 µM (inactive)
OVCAR-8
  GI50: > 100 µM (inactive)
PC-3
  GI50: > 100 µM (inactive)
RPMI-8226
  GI50: > 100 µM (inactive)
RXF 393
  GI50: > 100 µM (inactive)
SF-268
  GI50: > 100 µM (inactive)
SF-295
  GI50: > 100 µM (inactive)
SF-539
  GI50: > 100 µM (inactive)
SK-MEL-28
  GI50: > 100 µM (inactive)
SK-MEL-2
  GI50: > 100 µM (inactive)
SK-MEL-5
  GI50: > 100 µM (inactive)
SK-OV-3
  GI50: > 100 µM (inactive)
SN12C
  GI50: > 100 µM (inactive)
SNB-19
  GI50: > 100 µM (inactive)
SNB-75
  GI50: > 100 µM (inactive)
SR
  GI50: > 100 µM (inactive)
SW-620
  GI50: > 100 µM (inactive)
T47D
  GI50: > 100 µM (inactive)
TK-10
  GI50: > 100 µM (inactive)
U-251
  GI50: > 100 µM (inactive)
UACC-257
  GI50: > 100 µM (inactive)
UACC-62
  GI50: > 100 µM (inactive)

## CCn1c(=O)c2c3cc(O)ccc3oc2c2ccc(O)cc21
786-0
  GI50: 57.7 µM (inactive)
A498
  GI50: 18.9 µM (inactive)
A549
  GI50: 24.4 µM (inactive)
ACHN
  GI50: 21.3 µM (inactive)
BT-549
  GI50: 17.4 µM (inactive)
CAKI-1
  GI50: 34.3 µM (inactive)
CCRF-CEM
  GI50: 21.1 µM (inactive)
COLO 205
  GI50: 17.5 µM (inactive)
DU-145
  GI50: 29.4 µM (inactive)
EKVX
  GI50: 24.7 µM (inactive)
HCC 2998
  GI50: 19.3 µM (inactive)
HCT-15
  GI50: 31 µM
HOP-62
  GI50: 28.8 µM (inactive)
HOP-92
  GI50: 26.2 µM (inactive)
HT-29
  GI50: 25.2 µM (inactive)
Hs-578T
  GI50: 5.46 µM (inactive)
IGROV-1
  GI50: 42.6 µM (inactive)
K562
  GI50: 25.9 µM (inactive)
KM12
  GI50: 31.8 µM (inactive)
M14
  GI50: 31.2 µM (inactive)
MCF7
  GI50: 28.6 µM (inactive)
MDA-MB-231
  GI50: 25.2 µM (inactive)
MDA-MB-435
  GI50: 27 µM (inactive)
MDA-N
  GI50: 30 µM (inactive)
MOLT-4
  GI50: 16.1 µM (inactive)
Malme-3M
  GI50: 32.7 µM (inactive)
NCI-H226
  GI50: 37.1 µM (inactive)
NCI-H23
  GI50: 41.3 µM (inactive)
NCI-H460
  GI50: 26.9 µM (inactive)
NCI-H522
  GI50: 19.3 µM (inactive)
NCI/ADR-RES
  GI50: 37.8 µM (inactive)
OVCAR-3
  GI50: 29.9 µM (inactive)
OVCAR-4
  GI50: 34.8 µM (inactive)
OVCAR-8
  GI50: 36.7 µM (inactive)
PC-3
  GI50: 31.1 µM (inactive)
RXF 393
  GI50: 30.1 µM (inactive)
SF-268
  GI50: 27.5 µM (inactive)
SF-295
  GI50: 25 µM (inactive)
SF-539
  GI50: 16.7 µM (inactive)
SK-MEL-28
  GI50: 35.8 µM (inactive)
SK-MEL-5
  GI50: 17 µM (inactive)
SK-OV-3
  GI50: 43.6 µM (inactive)
SN12C
  GI50: 29.2 µM (inactive)
SNB-19
  GI50: 21.9 µM (inactive)
SNB-75
  GI50: 22.9 µM (inactive)
SR
  GI50: 18.2 µM (inactive)
SW-620
  GI50: 31.3 µM (inactive)
T47D
  GI50: 12.6 µM (inactive)
TK-10
  GI50: 24.8 µM (inactive)
U-251
  GI50: 22.9 µM (inactive)
UACC-257
  GI50: 76.6 µM (inactive)
UACC-62
  GI50: 20.3 µM (inactive)
UO-31
  GI50: 19.3 µM (inactive)

## COC(=O)C1=C(O)C(C(=O)OC)[C@]2(O)[C@H](C(=O)OC)[C@H]1C[C@@H](c1c(Cl)cccc1Cl)[C@H]2C(=O)OC (stereo partly drawn)
786-0
  GI50: 1.73 µM (inactive)
A498
  GI50: 2 µM (inactive)
A549
  GI50: 2.23 µM (inactive)
ACHN
  GI50: 2.19 µM (inactive)
BT-549
  GI50: 1.88 µM (inactive)
CAKI-1
  GI50: 2.83 µM (inactive)
COLO 205
  GI50: 2.07 µM (inactive)
DU-145
  GI50: 2.68 µM (inactive)
EKVX
  GI50: 4.25 µM (inactive)
HCC 2998
  GI50: 1.66 µM (inactive)
HCT-116
  GI50: 1.97 µM (inactive)
HCT-15
  GI50: 1.74 µM
HL-60
  GI50: 5.81 µM (inactive)
HOP-62
  GI50: 3.07 µM (inactive)
HOP-92
  GI50: 2.69 µM (inactive)
HT-29
  GI50: 2.33 µM (inactive)
Hs-578T
  GI50: 3.35 µM (inactive)
IGROV-1
  GI50: 2.16 µM (inactive)
K562
  GI50: 2.05 µM (inactive)
KM12
  GI50: 2.55 µM (inactive)
LOX IMVI
  GI50: 1.87 µM (inactive)
M14
  GI50: 1.55 µM (inactive)
MCF7
  GI50: 3.24 µM (inactive)
MDA-MB-231
  GI50: 2.96 µM (inactive)
MDA-MB-435
  GI50: 1.33 µM (inactive)
MDA-N
  GI50: 1.37 µM (inactive)
MOLT-4
  GI50: 1.81 µM (inactive)
Malme-3M
  GI50: 2.07 µM (inactive)
NCI-H226
  GI50: 2.14 µM (inactive)
NCI-H23
  GI50: 2.02 µM (inactive)
NCI-H460
  GI50: 2.31 µM (inactive)
NCI/ADR-RES
  GI50: 2.04 µM (inactive)
OVCAR-3
  GI50: 2.77 µM (inactive)
OVCAR-4
  GI50: 3.6 µM (inactive)
OVCAR-8
  GI50: 1.79 µM (inactive)
PC-3
  GI50: 1.99 µM (inactive)
RPMI-8226
  GI50: 1.51 µM (inactive)
RXF 393
  GI50: 1.75 µM (inactive)
SF-268
  GI50: 3.13 µM (inactive)
SF-295
  GI50: 2.67 µM (inactive)
SF-539
  GI50: 1.93 µM (inactive)
SK-MEL-28
  GI50: 2.24 µM (inactive)
SK-MEL-2
  GI50: 1.49 µM (inactive)
SK-MEL-5
  GI50: 1.66 µM (inactive)
SK-OV-3
  GI50: 3.96 µM (inactive)
SN12C
  GI50: 2.23 µM (inactive)
SNB-19
  GI50: 2.07 µM (inactive)
SNB-75
  GI50: 2.23 µM (inactive)
SR
  GI50: 1.82 µM (inactive)
SW-620
  GI50: 2.55 µM (inactive)
T47D
  GI50: 3.79 µM (inactive)
U-251
  GI50: 1.32 µM (inactive)
UACC-257
  GI50: 2.08 µM (inactive)
UACC-62
  GI50: 2.02 µM (inactive)
UO-31
  GI50: 1.65 µM (inactive)
